According to patent publication US20220112479A1, “COMPOUNDS STABILIZING AMYLASES IN LIQUIDS” (BASF SE, priority 2018, published 2022):

Columns and labels:
Type in all cases: biochemical
Amylase = assay: amylase storage stability in liquid laundry formulation (pNP release from Ethyliden-blocked-pNPG7); design: key: % of activity in reference formulation at time 0; settings: 2.5 wt % component (a), storage at 37° C.
Procedure: (§1) The storage stability of amylase was assessed at 37° C.
Base test formulations were manufactured by making base formulations VI to IX by mixing the components according to Table 4.
(§2) Amylase activity at certain points in time as indicated in Table 5 was measured quantitatively by the release of the chromophore para-nitrophenol (pNP) from the substrate (Ethyliden-blocked-pNPG7, Roche Applied Science 10880078103). The alpha-amylase degrades the substrate into smaller molecules and α-glucosidase (Roche Applied Science 11626329103), which is present in excess compared to the amylase, process these smaller products until pNP is released; the release of pNP, measured via an increase of absorption at 405 nm, is directly proportional to the amylase activity of the sample. Amylase standard: Termamyl 120 L (Sigma 3403).
(§3) The amylolytic activity values provided were calculated referring to the value determined in the reference formulation at the time 0.
(§4) The nomenclature of formulations is as follows: the Roman number before the full stop characterizes the base formulation, the Arabian number the type of compound (A.# compound according to invention (component (a)); B.# comparative compound).

Savinase Ultra 16.0L = target: T1, Savinase Ultra 16.0L (Lederbergia lenta, UniProt P29600); assay: protease storage stability in liquid formulation (Suc-AAPF-pNA substrate); settings: storage at 37° C.
T1 construct: purchased Sigma-Aldrich
T1 sequence (P29600 1-269): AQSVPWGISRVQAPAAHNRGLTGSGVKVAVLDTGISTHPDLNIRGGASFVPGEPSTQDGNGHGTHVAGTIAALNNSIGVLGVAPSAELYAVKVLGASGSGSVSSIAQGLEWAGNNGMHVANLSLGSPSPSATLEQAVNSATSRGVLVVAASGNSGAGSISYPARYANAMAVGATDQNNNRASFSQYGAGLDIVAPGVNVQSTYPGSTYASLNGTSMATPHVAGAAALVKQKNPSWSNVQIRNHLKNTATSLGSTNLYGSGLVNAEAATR
How it was run: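 Savinase in liquid base formulations containing test salt, comparative compound or diethylene glycol; amounts given as active protein. Residual activity at set storage times measured with Suc-AAPF-pNA via pNA release at OD405, 20 °C. Activity expressed relative to reference formulation at time 0.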

[1] = test system: Amy3=Stainzyme Plus L (12L); assay: amylase storage stability in liquid formulation (pNP release from Ethyliden-blocked-pNPG7); settings: base formulation II., 1.5 wt % component (a), storage at 37° C.
Procedure: as §1
Base test formulations were manufactured by making base formulations I to V by mixing the components according to Table 1.
Amylases used: Amy1=Stainzyme, Amy2=Amplify, Amy3=Stainzyme Plus L (12L)
The respective component (a) or comparative compound was added, if applicable, to the respective base formulation in amounts as indicated in Table 1.
The amount of amylase as provided in Table 1 refers to active protein.
Water was added to accomplish the balance to 100.
as §2, with “Table 2” for “Table 5”
as §3, §4

CCOC(=O)CC(O)(CC(=O)OCC)C(=O)OCC [A.1, Triethylcitrate]
amylase activity, referring to reference formulation at time 0 (Amylase; laundry base formulation IX. (2.5 DTPA), 3 d): 98 | amylase activity, referring to reference formulation at time 0 (Amylase; laundry base formulation IX. (2.5 DTPA), 7 d): 90 | amylase activity, referring to reference formulation at time 0 (Amylase; laundry base formulation IX. (2.5 DTPA), 14 d): 85 | amylase activity, referring to reference formulation at time 0 (Amylase; laundry base formulation IX. (2.5 DTPA), 21 d): 78 | amylase activity, referring to reference formulation at time 0 (Amylase; laundry base formulation IX. (2.5 DTPA), 28 d): 70 | amylase activity, referring to reference formulation at time 0 (Amylase; laundry base formulation IX. (2.5 DTPA), T0): 99 | amylase activity, referring to reference formulation at time 0 (Amylase; laundry base formulation VI. (2.0 EDTA), 3 d): 98 | amylase activity, referring to reference formulation at time 0 (Amylase; laundry base formulation VI. (2.0 EDTA), 7 d): 91 | amylase activity, referring to reference formulation at time 0 (Amylase; laundry base formulation VI. (2.0 EDTA), 14 d): 86 | amylase activity, referring to reference formulation at time 0 (Amylase; laundry base formulation VI. (2.0 EDTA), 21 d): 81 | amylase activity, referring to reference formulation at time 0 (Amylase; laundry base formulation VI. (2.0 EDTA), 28 d): 73 | amylase activity, referring to reference formulation at time 0 (Amylase; laundry base formulation VI. (2.0 EDTA), T0): 100 | amylase activity, referring to reference formulation at time 0 (Amylase; laundry base formulation VII. (2.0 EDTA), 3 d): 95 | amylase activity, referring to reference formulation at time 0 (Amylase; laundry base formulation VII. (2.0 EDTA), 7 d): 88 | amylase activity, referring to reference formulation at time 0 (Amylase; laundry base formulation VII. (2.0 EDTA), 14 d): 79 | amylase activity, referring to reference formulation at time 0 (Amylase; laundry base formulation VII. (2.0 EDTA), 21 d): 73 | amylase activity, referring to reference formulation at time 0 (Amylase; laundry base formulation VII. (2.0 EDTA), 28 d): 68 | amylase activity, referring to reference formulation at time 0 (Amylase; laundry base formulation VII. (2.0 EDTA), T0): 100 | amylase activity, referring to reference formulation at time 0 (Amylase; laundry base formulation VIII. (2.5 DTPA, no Savinase), 3 d): 98 | amylase activity, referring to reference formulation at time 0 (Amylase; laundry base formulation VIII. (2.5 DTPA, no Savinase), 7 d): 93 | amylase activity, referring to reference formulation at time 0 (Amylase; laundry base formulation VIII. (2.5 DTPA, no Savinase), 14 d): 88 | amylase activity, referring to reference formulation at time 0 (Amylase; laundry base formulation VIII. (2.5 DTPA, no Savinase), 21 d): 83 | amylase activity, referring to reference formulation at time 0 (Amylase; laundry base formulation VIII. (2.5 DTPA, no Savinase), 28 d): 75 | amylase activity, referring to reference formulation at time 0 (Amylase; laundry base formulation VIII. (2.5 DTPA, no Savinase), T0): 100 | protease activity, referring to reference formulation at time 0 (Savinase Ultra 16.0L; base formulation I., 1.5 wt % component (a), 3 d): 97 | protease activity, referring to reference formulation at time 0 (Savinase Ultra 16.0L; base formulation I., 1.5 wt % component (a), 7 d): 94 | protease activity, referring to reference formulation at time 0 (Savinase Ultra 16.0L; base formulation I., 1.5 wt % component (a), 14 d): 89 | protease activity, referring to reference formulation at time 0 (Savinase Ultra 16.0L; base formulation I., 1.5 wt % component (a), 21 d): 83 | protease activity, referring to reference formulation at time 0 (Savinase Ultra 16.0L; base formulation I., 1.5 wt % component (a), 28 d): 79 | protease activity, referring to reference formulation at time 0 (Savinase Ultra 16.0L; base formulation I., 1.5 wt % component (a), 42 d): 67 | protease activity, referring to reference formulation at time 0 (Savinase Ultra 16.0L; base formulation I., 1.5 wt % component (a), T0): 100 | protease activity, referring to reference formulation at time 0 (Savinase Ultra 16.0L; base formulation II., 1.5 wt % component (a), 3 d): 99 | protease activity, referring to reference formulation at time 0 (Savinase Ultra 16.0L; base formulation II., 1.5 wt % component (a), 7 d): 96 | protease activity, referring to reference formulation at time 0 (Savinase Ultra 16.0L; base formulation II., 1.5 wt % component (a), 14 d): 90 | protease activity, referring to reference formulation at time 0 (Savinase Ultra 16.0L; base formulation II., 1.5 wt % component (a), 21 d): 85 | protease activity, referring to reference formulation at time 0 (Savinase Ultra 16.0L; base formulation II., 1.5 wt % component (a), 28 d): 80 | protease activity, referring to reference formulation at time 0 (Savinase Ultra 16.0L; base formulation II., 1.5 wt % component (a), 42 d): 69 | protease activity, referring to reference formulation at time 0 (Savinase Ultra 16.0L; base formulation II., 1.5 wt % component (a), T0): 100 | protease activity, referring to reference formulation at time 0 (Savinase Ultra 16.0L; base formulation III., 1.5 wt % component (a), 3 d): 99 | protease activity, referring to reference formulation at time 0 (Savinase Ultra 16.0L; base formulation III., 1.5 wt % component (a), 7 d): 93 | protease activity, referring to reference formulation at time 0 (Savinase Ultra 16.0L; base formulation III., 1.5 wt % component (a), 14 d): 88 | protease activity, referring to reference formulation at time 0 (Savinase Ultra 16.0L; base formulation III., 1.5 wt % component (a), 21 d): 85 | protease activity, referring to reference formulation at time 0 (Savinase Ultra 16.0L; base formulation III., 1.5 wt % component (a), 28 d): 74 | protease activity, referring to reference formulation at time 0 (Savinase Ultra 16.0L; base formulation III., 1.5 wt % component (a), 42 d): 67 | protease activity, referring to reference formulation at time 0 (Savinase Ultra 16.0L; base formulation III., 1.5 wt % component (a), T0): 100 | protease activity, referring to reference formulation at time 0 (Savinase Ultra 16.0L; base formulation IV., 2.0 wt % component (a), 3 d): 96 | protease activity, referring to reference formulation at time 0 (Savinase Ultra 16.0L; base formulation IV., 2.0 wt % component (a), 7 d): 92 | protease activity, referring to reference formulation at time 0 (Savinase Ultra 16.0L; base formulation IV., 2.0 wt % component (a), 14 d): 86 | protease activity, referring to reference formulation at time 0 (Savinase Ultra 16.0L; base formulation IV., 2.0 wt % component (a), 21 d): 80 | protease activity, referring to reference formulation at time 0 (Savinase Ultra 16.0L; base formulation IV., 2.0 wt % component (a), 28 d): 72 | protease activity, referring to reference formulation at time 0 (Savinase Ultra 16.0L; base formulation IV., 2.0 wt % component (a), 42 d): 65 | protease activity, referring to reference formulation at time 0 (Savinase Ultra 16.0L; base formulation IV., 2.0 wt % component (a), T0): 98 | protease activity, referring to reference formulation at time 0 (Savinase Ultra 16.0L; base formulation V., 2.0 wt % component (a), 3 d): 94 | protease activity, referring to reference formulation at time 0 (Savinase Ultra 16.0L; base formulation V., 2.0 wt % component (a), 7 d): 90 | protease activity, referring to reference formulation at time 0 (Savinase Ultra 16.0L; base formulation V., 2.0 wt % component (a), 14 d): 85 | protease activity, referring to reference formulation at time 0 (Savinase Ultra 16.0L; base formulation V., 2.0 wt % component (a), 21 d): 81 | protease activity, referring to reference formulation at time 0 (Savinase Ultra 16.0L; base formulation V., 2.0 wt % component (a), 28 d): 75 | protease activity, referring to reference formulation at time 0 (Savinase Ultra 16.0L; base formulation V., 2.0 wt % component (a), 42 d): 65 | protease activity, referring to reference formulation at time 0 (Savinase Ultra 16.0L; base formulation V., 2.0 wt % component (a), T0): 99 | amylase activity, referring to reference formulation at time 0 ([1]; 3 d): 100 | amylase activity, referring to reference formulation at time 0 ([1]; 7 d): 94 | amylase activity, referring to reference formulation at time 0 ([1]; 14 d): 90 | amylase activity, referring to reference formulation at time 0 ([1]; 21 d): 84 | amylase activity, referring to reference formulation at time 0 ([1]; 28 d): 77 | amylase activity, referring to reference formulation at time 0 ([1]; 42 d): 65 | amylase activity, referring to reference formulation at time 0 ([1]; T0): 100
